# What was measured:
# [1] = biological target: Vascular endothelial growth factor receptor 2 (Mus musculus, UniProt P35918); experiment: Inhibitory activity against vascular endothelial growth factor receptor 2 (FLK1)
# [2] = biological target: Human immunodeficiency virus type 1 protease (Human immunodeficiency virus 1, UniProt Q72874); experiment: Inhibitory activity against HIV-1 protease.
# Chain of Vascular endothelial growth factor receptor 2 (P35918 whole entry): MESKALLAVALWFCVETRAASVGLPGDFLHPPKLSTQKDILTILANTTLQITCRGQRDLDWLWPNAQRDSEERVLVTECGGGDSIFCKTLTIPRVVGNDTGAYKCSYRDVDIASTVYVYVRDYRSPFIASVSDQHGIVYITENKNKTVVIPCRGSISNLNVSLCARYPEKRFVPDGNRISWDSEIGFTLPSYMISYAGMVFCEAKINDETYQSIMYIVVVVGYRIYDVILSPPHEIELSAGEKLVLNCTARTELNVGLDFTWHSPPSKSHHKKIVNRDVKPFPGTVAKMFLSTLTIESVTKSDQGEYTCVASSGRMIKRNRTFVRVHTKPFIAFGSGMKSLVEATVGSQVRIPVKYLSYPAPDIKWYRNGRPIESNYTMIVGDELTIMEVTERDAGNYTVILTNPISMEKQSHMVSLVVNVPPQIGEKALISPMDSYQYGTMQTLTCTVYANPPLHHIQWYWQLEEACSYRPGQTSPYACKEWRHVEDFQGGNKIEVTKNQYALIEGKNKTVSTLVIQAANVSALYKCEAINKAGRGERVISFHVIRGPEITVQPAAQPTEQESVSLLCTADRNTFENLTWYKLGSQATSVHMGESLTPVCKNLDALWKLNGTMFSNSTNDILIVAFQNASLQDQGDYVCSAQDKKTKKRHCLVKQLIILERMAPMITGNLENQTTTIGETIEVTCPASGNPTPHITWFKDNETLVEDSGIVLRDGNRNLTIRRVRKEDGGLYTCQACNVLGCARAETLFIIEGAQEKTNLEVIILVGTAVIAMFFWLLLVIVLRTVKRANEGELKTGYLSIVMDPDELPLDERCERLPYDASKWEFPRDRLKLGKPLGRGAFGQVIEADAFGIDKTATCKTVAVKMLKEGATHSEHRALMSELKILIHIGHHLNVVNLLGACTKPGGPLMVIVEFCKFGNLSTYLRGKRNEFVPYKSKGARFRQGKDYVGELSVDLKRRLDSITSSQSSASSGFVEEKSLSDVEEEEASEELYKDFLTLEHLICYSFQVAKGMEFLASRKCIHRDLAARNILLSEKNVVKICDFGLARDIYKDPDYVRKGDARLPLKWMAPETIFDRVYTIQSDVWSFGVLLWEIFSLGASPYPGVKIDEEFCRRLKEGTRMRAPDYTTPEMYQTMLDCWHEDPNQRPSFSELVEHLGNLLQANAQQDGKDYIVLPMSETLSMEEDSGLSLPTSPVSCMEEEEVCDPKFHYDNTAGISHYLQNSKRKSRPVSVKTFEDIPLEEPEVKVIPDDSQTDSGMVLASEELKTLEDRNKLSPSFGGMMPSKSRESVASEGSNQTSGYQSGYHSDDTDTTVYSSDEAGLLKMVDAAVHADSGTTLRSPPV
IC50 [1] [µM],IC50 [2] [µM],Compound
0.708,,O=C1Nc2cc(F)ccc2/C1=C\c1ccc[nH]1
,0.00771,CC(C)(C)OC(=O)N[C@@H](Cc1ccccc1)[C@@H](O)C[C@@](C)(Cc1ccccc1)C(=O)N[C@@H]1c2ccccc2C[C@H]1O
3.02,,O=C1Nc2ccccc2/C1=C\c1ccc(N2CCCC2)cc1
3.39,,CCc1ccc(/C=C2/C(=O)Nc3ccccc32)s1
,0.0343,CC(C)(C)OC(=O)N[C@@H](Cc1ccccc1)[C@@H](O)C[C@@H](Cc1ccccc1)C(=O)N[C@H]1CCc2ccccc21
,0.00018,CC(C)(C)OC(=O)N[C@@H](Cc1ccccc1)[C@@H](O)C[C@@H](Cc1ccccc1)C(=O)N[C@@H]1c2ccccc2OC[C@H]1O
,0.00017,CC(C)(C)OC(=O)N[C@@H](Cc1ccccc1)[C@@H](O)C[C@@H](Cc1ccc(C(C)(C)C)cc1)C(=O)N[C@@H]1c2ccccc2C[C@H]1O
,0.00027,CC(C)(C)OC(=O)N[C@@H](Cc1ccccc1)[C@@H](O)C[C@@H](Cc1ccc([N+](=O)[O-])cc1)C(=O)N[C@@H]1c2ccccc2C[C@H]1O
100,,O=CN1CCN(c2ccc(/C=C3\C(=O)Nc4ccc(Br)cc43)cc2)CC1
1000,,O=C1Nc2ccccc2/C1=C\c1ccco1
,0.122,CC(C)(C)OC(=O)N[C@@H](Cc1ccccc1)[C@@H](O)C[C@@H](Cc1ccccc1)C(=O)N[C@@H]1CCCC[C@H]1O
1000,,C/C(=C1\C(=O)Nc2ccccc21)c1ccc(N2CCCCC2)cc1
,0.00025,CC(C)(C)OC(=O)N[C@@H](Cc1ccccc1)[C@@H](O)C[C@@H](CSc1ccccc1)C(=O)N[C@@H]1c2ccccc2C[C@H]1O
1000,,CN1C(=O)/C(=C/c2ccc(Br)cc2)c2ccccc21
2.69,,Cc1c[nH]c(/C=C2/C(=O)Nc3ccccc32)c1C
8.32,,CC(C)(C)c1cc(/C=C2/C(=O)Nc3ccccc32)cc(C(C)(C)C)c1O
2.51,,O=C1Nc2ccccc2/C1=C\c1ccc(N2CCOCC2)cc1
5.13,,O=CN1CCN(c2ccc(/C=C3\C(=O)Nc4ccccc43)cc2)CC1
,0.00023,CC(C)(C)OC(=O)N[C@@H](Cc1ccccc1)[C@@H](O)C[C@@H](C/C=C/c1ccccc1)C(=O)N[C@@H]1c2ccccc2C[C@H]1O
,0.0662,COC(=O)[C@@H]1Cc2ccccc2[C@H]1NC(=O)[C@H](Cc1ccccc1)C[C@H](O)[C@H](Cc1ccccc1)NC(=O)OC(C)(C)C
,2.94,CC(C)(C)OC(=O)N[C@@H](Cc1ccccc1)[C@@H](O)CCC(=O)N[C@@H]1c2ccccc2C[C@H]1O

IC50 [1] [µM],IC50 [2] [µM],Compound
0.141,,CCc1c(/C=C2/C(=O)Nc3ccccc32)[nH]c(C)c1C
2.34,,CSc1ccc(/C=C2/C(=O)Nc3ccccc32)s1
4.47,,O=C1Nc2ccccc2/C1=C\c1ccc(N2CCCCC2)cc1
4.57,,CN(C)c1ccc(/C=C2/C(=O)Nc3cc(F)ccc32)cc1
46.8,,CC(C)(C)c1cc(/C=C2/C(=O)Nc3ccccc32)cc(Br)c1O
2.69,,O=C1Nc2ccccc2/C1=C\c1ccc(O)cc1
,0.0406,CC(C)(C)OC(=O)N[C@@H](Cc1ccccc1)[C@@H](O)C[C@@H](Cc1ccccc1)C(=O)N[C@H]1c2ccccc2OC[C@@H]1O
1000,,O=C1Nc2ccccc2/C1=C\c1cc(Br)cs1
,0.00025,CC(C)(C)OC(=O)N[C@@H](Cc1ccccc1)[C@@H](O)C[C@@H](Cc1ccccc1)C(=O)N[C@@H]1c2ccccc2C[C@H]1O
1000,,CSc1ccc(/C=C2\C(=O)Nc3cccc(C)c32)s1
,0.0006,CC(C)(C)OC(=O)N[C@@H](Cc1ccccc1)[C@@H](O)C[C@@H](Cc1c(F)c(F)c(F)c(F)c1F)C(=O)N[C@@H]1c2ccccc2C[C@H]1O
0.0708,,CCOC(=O)c1c(C)[nH]c(/C=C2/C(=O)Nc3ccccc32)c1C
0.708,,Cc1cc(C)c(/C=C2/C(=O)Nc3cc(F)ccc32)[nH]1
20.4,,Cn1cccc1/C=C1/C(=O)Nc2ccccc21
,0.0275,C=CC[C@H](C[C@H](O)[C@H](Cc1ccccc1)NC(=O)OC(C)(C)C)C(=O)N[C@@H]1c2ccccc2C[C@H]1O
1000,,O=C1Nc2ccccc2/C1=C\c1ccc(Br)cc1
,0.00026,CC(C)(C)OC(=O)N[C@@H](Cc1ccccc1)[C@@H](O)C[C@@H](Cc1ccc(C(F)(F)F)cc1)C(=O)N[C@@H]1c2ccccc2C[C@H]1O
,0.00031,CC(C)(C)OC(=O)N[C@@H](Cc1ccccc1)[C@@H](O)C[C@@H](Cc1ccc(N)cc1)C(=O)N[C@@H]1c2ccccc2C[C@H]1O
1000,,COc1ccc(/C=C2\C(=O)Nc3ccc(Cl)cc32)cc1C(C)(C)C
1000,,CCc1c(C)[nH]c(/C=C2/C(=O)Nc3ccccc32)c1C
,0.00053,CC(C)(C)OC(=O)N[C@@H](Cc1ccccc1)[C@@H](O)C[C@@H](Cc1ccncc1)C(=O)N[C@@H]1c2ccccc2C[C@H]1O

IC50 [1] [µM],IC50 [2] [µM],Compound
,0.000719,CC(C)(C)OC(=O)N[C@@H](Cc1ccccc1)[C@@H](O)C[C@@H](Cc1ccc(I)cc1)C(=O)N[C@@H]1c2ccccc2C[C@H]1O
,0.00016,CC(C)(C)OC(=O)N[C@@H](Cc1ccccc1)[C@@H](O)C[C@@H](Cc1ccc(O)cc1)C(=O)N[C@@H]1c2ccccc2C[C@H]1O
50.1,,O=C1Nc2ccc(Br)cc2/C1=C/c1ccc(N2CCOCC2)cc1
,0.00019,CC(C)(C)OC(=O)N[C@@H](Cc1ccccc1)[C@@H](O)C[C@@H](CCCc1ccccc1)C(=O)N[C@@H]1c2ccccc2[C@@H](O)[C@H]1O
8.51,,CC(C)c1cc(/C=C2/C(=O)Nc3ccccc32)cc(C(C)C)c1O
,0.00029,Cc1ccc(C[C@H](C[C@H](O)[C@H](Cc2ccccc2)NC(=O)OC(C)(C)C)C(=O)N[C@@H]2c3ccccc3C[C@H]2O)cc1
,0.0001,CC(C)(C)OC(=O)N[C@@H](Cc1ccccc1)[C@@H](O)C[C@@H](Cc1ccccc1)C(=O)N[C@@H]1c2ccccc2[C@@H](O)[C@H]1O
1000,,COc1ccc(/C=C2/C(=O)Nc3ccccc32)cc1C(C)(C)C
0.398,,Cc1c[nH]c(/C=C2/C(=O)Nc3ccccc32)c1CCC(O)O
7.59,,COc1ccc(/C=C2/C(=O)Nc3ccccc32)cc1
0.794,,CN(C)c1ccc(/C=C2/C(=O)Nc3ccccc32)cc1
22.4,,CN(C)c1ccc(/C=C2/C(=O)N(C)c3ccccc32)cc1
,0.00953,CC(C)(C)OC(=O)N[C@@H](Cc1ccccc1)[C@@H](O)C[C@@H](Cc1ccccc1)C(=O)N[C@@H]1C=CC[C@H]1O
1000,,O=C1Nc2ccc([N+](=O)[O-])cc2/C1=C/c1ccc[nH]1
,0.0007,CC(C)(C)OC(=O)N[C@@H](Cc1ccccc1)[C@@H](O)C[C@@H](Cc1ccccc1)C(=O)N[C@@H]1c2ccccc2CC[C@H]1O
,0.00542,CC(C)(C)OC(=O)N[C@@H](Cc1ccccc1)[C@@H](O)C[C@@H](CC(=O)c1ccccc1)C(=O)N[C@@H]1c2ccccc2C[C@H]1O
1000,,Cn1cc(Cl)c(/C=C2/C(=O)Nc3ccccc32)n1
1000,,COc1c(Br)cc(/C=C2\C(=O)Nc3ccc(Cl)cc32)cc1C(C)(C)C
7.41,,O=C1Nc2ccccc2/C1=C\c1n[nH]cc1Cl
0.182,,CCOC(=O)c1c[nH]c(/C=C2/C(=O)Nc3ccccc32)c1C

# Source: ChEMBL document CHEMBL1133609, “DoMCoSAR: a novel approach for establishing the docking mode that is consistent with the structure-activity relationship. Application to HIV-1 protease inhibitors and VEGF receptor tyrosine kinase inhibitors” (J Med Chem, 2000)
